Experimental data as given in ChEMBL document CHEMBL1201862, “PubChem BioAssay data set” (2004).
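Dose response: 5 concentrations. Exposure: 48 h. Format: 96-well plates. Endpoint: linear interpolation; highest concentration if not reached. GI50 = concentration required for 50% inhibition of growth.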 Activity calls are given as the source filed them. Cut-off read from the data, not from the text of the source: active = GI50 up to about 1.1 µM and inactive = higher.

Legend:
Assay in all cases: inhibition of tumour cell growth, NCI panel, 48 h
COLO 205 = system: COLO 205
M19-MEL = system: M19-MEL
SW-620 = system: SW-620
SK-MEL-5 = system: SK-MEL-5
SNB-75 = system: SNB-75
RPMI-8226 = system: RPMI-8226
M14 = system: M14
SK-OV-3 = system: SK-OV-3
HCC 2998 = system: HCC 2998
RXF 393 = system: RXF 393
OVCAR-8 = system: OVCAR-8
TK-10 = system: TK-10
OVCAR-3 = system: OVCAR-3
U-251 = system: U-251
SN12C = system: SN12C
MDA-MB-231 = system: MDA-MB-231
MCF7 = system: MCF7
BT-549 = system: BT-549
T47D = system: T47D
MDA-MB-435 = system: MDA-MB-435

Measured: GI50

Cc1ccc(N(C(=O)CC(=O)N2N=C(c3ccccc3)C(/N=N/c3ccc([N+](=O)[O-])cc3)C2=O)C(=O)c2ccc(Cl)cc2)cc1 (centres undefined)
inactive: COLO 205 5.31 µM | M19-MEL 26 µM | SW-620 21.6 µM | SK-MEL-5 16.9 µM | SNB-75 10.4 µM | RPMI-8226 21.1 µM | M14 5.69 µM | SK-OV-3 12.2 µM | HCC 2998 51.2 µM | RXF 393 5.16 µM | OVCAR-8 18.1 µM | TK-10 10.9 µM | OVCAR-3 24 µM | U-251 6.27 µM | SN12C 18.5 µM

N=C(N)NCCCC(Nc1c2ccccc2nc2ccccc12)C(=O)O (centres undefined)
inactive: COLO 205 > 100 µM | M19-MEL > 100 µM | SW-620 > 100 µM | SNB-75 > 100 µM | RPMI-8226 33.1 µM | M14 > 100 µM | HCC 2998 > 100 µM | RXF 393 > 100 µM | OVCAR-8 > 100 µM | TK-10 53.7 µM | OVCAR-3 82.6 µM | U-251 > 100 µM | SN12C > 100 µM

CCSC1(SCC)CCN(/C=N/C(C)(C)C)C1
inactive: COLO 205 54.7 µM | M19-MEL > 100 µM | SW-620 19.5 µM | SK-MEL-5 > 100 µM | SNB-75 > 100 µM | M14 > 100 µM | SK-OV-3 > 100 µM | HCC 2998 > 100 µM | RXF 393 67.8 µM | OVCAR-8 > 100 µM | TK-10 > 100 µM | OVCAR-3 > 100 µM | U-251 > 100 µM | SN12C > 100 µM

O=C1C(c2cnc3ccccc3n2)=C(O)c2ccccc21
inactive: COLO 205 43.2 µM | M19-MEL > 100 µM | MDA-MB-231 > 100 µM | SW-620 > 56.2 µM | MCF7 10.3 µM | SK-MEL-5 9.75 µM | SNB-75 22 µM | RPMI-8226 > 61.1 µM | M14 > 100 µM | SK-OV-3 > 46.5 µM | HCC 2998 71.8 µM | BT-549 > 100 µM | RXF 393 9.71 µM | OVCAR-8 > 75.7 µM | TK-10 18.3 µM | T47D 83.6 µM | OVCAR-3 > 100 µM | MDA-MB-435 4.19 µM | U-251 58.6 µM | SN12C > 77.3 µM

COc1ccc2c(c1OC)C1=C(C2=O)c2cc3c(cc2CCN1)OCO3
inactive: COLO 205 4.08 µM | M19-MEL 42.1 µM | SW-620 22.5 µM | SK-MEL-5 33.1 µM | SNB-75 2.74 µM | RPMI-8226 23.1 µM | M14 37.3 µM | HCC 2998 32.1 µM | RXF 393 42.7 µM | OVCAR-8 39.9 µM | TK-10 54.1 µM | OVCAR-3 31.6 µM | SN12C 6.76 µM

CC(C)CC(=O)NS(=O)(=O)c1ccccc1
inactive: COLO 205 > 100 µM | M19-MEL > 100 µM | SW-620 > 100 µM | SNB-75 > 100 µM | RPMI-8226 > 100 µM | M14 > 100 µM | SK-OV-3 > 100 µM | HCC 2998 > 100 µM | RXF 393 > 100 µM | OVCAR-8 > 100 µM | TK-10 > 100 µM | OVCAR-3 > 100 µM | U-251 > 100 µM | SN12C > 100 µM

CC(C)(C)C1=CC(=N/N=c2\scc(-c3ccccc3)n2-c2ccccc2)C=C(C(C)(C)C)C1=O
inactive: COLO 205 > 100 µM | M19-MEL > 100 µM | SW-620 86.5 µM | SK-MEL-5 > 100 µM | SNB-75 > 100 µM | RPMI-8226 > 100 µM | M14 > 100 µM | SK-OV-3 > 100 µM | HCC 2998 > 100 µM | RXF 393 > 100 µM | OVCAR-8 > 100 µM | TK-10 > 100 µM | OVCAR-3 > 100 µM | U-251 > 100 µM | SN12C > 100 µM

COc1ccc(-c2cc(=O)c3c(OC)cccc3o2)c(OC)c1OC
inactive: COLO 205 > 100 µM | M19-MEL > 100 µM | SW-620 > 100 µM | SK-MEL-5 87.7 µM | SNB-75 19.8 µM | RPMI-8226 80.5 µM | M14 > 100 µM | SK-OV-3 > 100 µM | HCC 2998 > 100 µM | RXF 393 39 µM | OVCAR-8 > 100 µM | TK-10 82 µM | OVCAR-3 > 100 µM | U-251 > 100 µM | SN12C > 100 µM
